Bridge positions count the residues as written; N and C are the ends. Square brackets hold non-standard residues; d marks the D form. Peptide text beside a SMILES is read from it. 1Nal = N[C@@H](Cc1cccc2ccccc12)C(=O)O
Columns and labels:
[1] = tested on: thapsigargin-induced IL-2 production in human whole blood; details: read-out: Analogue Activity (IC50) WB/IL-2
[2] = tested on: thapsigargin-induced IFN-g production in human whole blood; type: cell-based; details: read-out: Analogue Activity (IC50) WB/IFNg

Compound `CC[C@H](C)[C@@H]1NC(=O)[C@H](CCCCN)NC(=O)[C@@H](NC(=O)[C@H](CCCCN)NC(=O)[C@@H](NC(=O)[C@H](CC(N)=O)NC(=O)[C@@H](NC(=O)[C@@H](NC(=O)[C@@H](NC(=O)CN)C(C)C)[C@@H](C)CC)[C@@H](C)CC)C(C)C)CSSC[C@@H]2NC(=O)[C@H](CCCCN)NC(=O)CNC(=O)[C@H](Cc3ccccc3)NC(=O)[C@H](CCCNC(=N)N)NC(=O)[C@H](CCSC)NC(=O)CNC(=O)[C@H](C)NC(=O)[C@H](CCCCN)NC(=O)[C@H](CCCCN)NC(=O)[C@@H]3CSSC[C@@H](C(=O)N[C@H](C(=O)N4CCC[C@H]4C(=O)N[C@@H](CCCCN)C(=O)O)[C@@H](C)O)NC(=O)[C@H](Cc4c[nH]cn4)NC(=O)[C@H](CSSC[C@H](NC(=O)[C@H](CCC(=O)O)NC(=O)[C@H](CCCNC(=N)N)NC(=O)[C@H](CO)NC1=O)C(=O)N[C@@H](CC(C)C)C(=O)N[C@@H](CCC(=O)O)C(=O)N1CCC[C@H]1C(=O)N3)NC(=O)[C@H](CCCCN)NC(=O)CNC(=O)[C@H](CC(N)=O)NC(=O)[C@H](CCSC)NC2=O` [Q13E] (H-GVIINVKCKISRECLEPCKKAGMRFGKCMNGKCHCTPK-OH; disulfide 8-28, 14-33, 18-35) has an IC50 [1] of 1.06 nM and an IC50 [2] of 0.799 nM.

With `CC[C@H](C)[C@@H]1NC(=O)[C@H](CCCCN)NC(=O)[C@@H](NC(=O)[C@H](CCCCN)NC(=O)[C@@H](NC(=O)[C@H](CC(N)=O)NC(=O)[C@@H](NC(=O)[C@@H](NC(=O)[C@@H](NC(=O)CN)C(C)C)[C@@H](C)CC)[C@@H](C)CC)C(C)C)CSSC[C@@H]2NC(=O)[C@H](CCCCN)NC(=O)CNC(=O)[C@H](Cc3ccccc3)NC(=O)[C@H](CCCNC(=N)N)NC(=O)[C@H](CCSC)NC(=O)CNC(=O)[C@H](CCCNC(=N)N)NC(=O)[C@H](CCCCN)NC(=O)[C@H](CCCCN)NC(=O)[C@@H]3CSSC[C@@H](C(=O)N[C@H](C(=O)N4CCC[C@H]4C(=O)N[C@@H](CCCCN)C(=O)O)[C@@H](C)O)NC(=O)[C@H](Cc4c[nH]cn4)NC(=O)[C@H](CSSC[C@H](NC(=O)[C@H](CCC(N)=O)NC(=O)[C@H](CCCNC(=N)N)NC(=O)[C@H](CO)NC1=O)C(=O)N[C@@H](CC(C)C)C(=O)N[C@@H](CCC(=O)O)C(=O)N1CCC[C@H]1C(=O)N3)NC(=O)[C@H](CCCCN)NC(=O)CNC(=O)[C@H](CC(N)=O)NC(=O)[C@H](CCSC)NC2=O` [A21R] (H-GVIINVKCKISRQCLEPCKKRGMRFGKCMNGKCHCTPK-OH; disulfide 8-28, 14-33, 18-35) the IC50 [1] was 0.09 nM and the IC50 [2] was 0.149 nM.

Compound `CC[C@H](C)[C@H](NC(=O)[C@@H](NC(=O)CN)C(C)C)C(=O)N[C@H](C(=O)N[C@@H](CC(N)=O)C(=O)N[C@H](C(=O)N[C@@H](CCCCN)C(=O)N[C@H]1CSSC[C@@H]2NC(=O)[C@H](CCCCN)NC(=O)CNC(=O)[C@H](Cc3ccccc3)NC(=O)[C@H](CCCNC(=N)N)NC(=O)[C@H](CCSC)NC(=O)CNC(=O)[C@H](C)NC(=O)[C@H](CCCCN)NC(=O)[C@H](CCCCN)NC(=O)[C@@H]3CSSC[C@@H](C(=O)N[C@H](C(=O)N4CCC[C@H]4C(=O)N[C@@H](CCCCN)C(=O)O)[C@@H](C)O)NC(=O)[C@H](Cc4c[nH]cn4)NC(=O)[C@H](CSSC[C@H](NC(=O)[C@H](CCC(N)=O)NC(=O)[C@H](CCCNC(=N)N)NC(=O)[C@H](CO)NC(=O)[C@H](C)NC(=O)[C@H](CCCCN)NC1=O)C(=O)N[C@@H](CC(C)C)C(=O)N[C@@H](CCC(=O)O)C(=O)N1CCC[C@H]1C(=O)N3)NC(=O)[C@H](CCCCN)NC(=O)CNC(=O)[C@H](CC(N)=O)NC(=O)[C@H](CCSC)NC2=O)C(C)C)[C@@H](C)CC` [I10A] (H-GVIINVKCKASRQCLEPCKKAGMRFGKCMNGKCHCTPK-OH; disulfide 8-28, 14-33, 18-35) has an IC50 [1] of 0.05 nM and an IC50 [2] of 0.0296 nM.

Work on `CC[C@H](C)[C@@H]1NC(=O)[C@H](CCCCN)NC(=O)[C@@H](NC(=O)[C@H](CCCCN)NC(=O)[C@@H](NC(=O)[C@H](CC(N)=O)NC(=O)[C@@H](NC(=O)[C@@H](NC(=O)[C@@H](NC(=O)CN)C(C)C)[C@@H](C)CC)[C@@H](C)CC)C(C)C)CSSC[C@@H]2NC(=O)[C@H](CCCCN)NC(=O)CNC(=O)[C@H](Cc3ccccc3)NC(=O)[C@H](CCCNC(=N)N)NC(=O)[C@H](CCSC)NC(=O)[C@H](CCC(=O)O)NC(=O)[C@H](C)NC(=O)[C@H](CCCCN)NC(=O)[C@H](CCCCN)NC(=O)[C@@H]3CSSC[C@@H](C(=O)N[C@H](C(=O)N4CCC[C@H]4C(=O)N[C@@H](CCCCN)C(=O)O)[C@@H](C)O)NC(=O)[C@H](Cc4c[nH]cn4)NC(=O)[C@H](CSSC[C@H](NC(=O)[C@H](CCC(N)=O)NC(=O)[C@H](CCCNC(=N)N)NC(=O)[C@H](CO)NC1=O)C(=O)N[C@@H](CC(C)C)C(=O)N[C@@H](CCC(=O)O)C(=O)N1CCC[C@H]1C(=O)N3)NC(=O)[C@H](CCCCN)NC(=O)CNC(=O)[C@H](CC(N)=O)NC(=O)[C@H](CCSC)NC2=O` [G22E] (H-GVIINVKCKISRQCLEPCKKAEMRFGKCMNGKCHCTPK-OH; disulfide 8-28, 14-33, 18-35) yielded an IC50 [1] of 0.109 nM and an IC50 [2] of 0.164 nM.

`CC[C@H](C)[C@@H]1NC(=O)[C@H](CCCCN)NC(=O)[C@@H](NC(=O)[C@H](CCCCN)NC(=O)[C@@H](NC(=O)[C@H](CC(N)=O)NC(=O)[C@H](Cc2cccc3ccccc23)NC(=O)[C@@H](NC(=O)[C@@H](NC(=O)CN)C(C)C)[C@@H](C)CC)C(C)C)CSSC[C@@H]2NC(=O)[C@H](CCCCN)NC(=O)CNC(=O)[C@H](Cc3ccccc3)NC(=O)[C@H](CCCNC(=N)N)NC(=O)[C@H](CCSC)NC(=O)CNC(=O)[C@H](C)NC(=O)[C@H](CCCCN)NC(=O)[C@H](CCCCN)NC(=O)[C@@H]3CSSC[C@@H](C(=O)N[C@H](C(=O)N4CCC[C@H]4C(=O)N[C@@H](CCCCN)C(=O)O)[C@@H](C)O)NC(=O)[C@H](Cc4c[nH]cn4)NC(=O)[C@H](CSSC[C@H](NC(=O)[C@H](CCC(N)=O)NC(=O)[C@H](CCCNC(=N)N)NC(=O)[C@H](CO)NC1=O)C(=O)N[C@@H](CC(C)C)C(=O)N[C@@H](CCC(=O)O)C(=O)N1CCC[C@H]1C(=O)N3)NC(=O)[C@H](CCCCN)NC(=O)CNC(=O)[C@H](CC(N)=O)NC(=O)[C@H](CCSC)NC2=O` [I4Nal] (H-GVI[1Nal]NVKCKISRQCLEPCKKAGMRFGKCMNGKCHCTPK-OH; disulfide 8-28, 14-33, 18-35) showed an IC50 [1] of 1.09 nM and an IC50 [2] of 1.01 nM.

`CC[C@H](C)[C@@H]1NC(=O)[C@H](CCCCN)NC(=O)[C@@H](NC(=O)[C@H](CCCCN)NC(=O)[C@@H](NC(=O)[C@H](CC(N)=O)NC(=O)[C@@H](NC(=O)[C@@H](NC(=O)[C@@H](NC(=O)CN)C(C)C)[C@@H](C)CC)[C@@H](C)CC)C(C)C)CSSC[C@@H]2NC(=O)[C@H](CCCCN)NC(=O)CNC(=O)[C@H](Cc3ccccc3)NC(=O)[C@H](CCCNC(=N)N)NC(=O)[C@H](CCCNC(=N)N)NC(=O)CNC(=O)[C@H](C)NC(=O)[C@H](CCCCN)NC(=O)[C@H](CCCCN)NC(=O)[C@@H]3CSSC[C@@H](C(=O)N[C@H](C(=O)N4CCC[C@H]4C(=O)N[C@@H](CCCCN)C(=O)O)[C@@H](C)O)NC(=O)[C@H](Cc4c[nH]cn4)NC(=O)[C@H](CSSC[C@H](NC(=O)[C@H](CCC(N)=O)NC(=O)[C@H](CCCNC(=N)N)NC(=O)[C@H](CO)NC1=O)C(=O)N[C@@H](CC(C)C)C(=O)N[C@@H](CCC(=O)O)C(=O)N1CCC[C@H]1C(=O)N3)NC(=O)[C@H](CCCCN)NC(=O)CNC(=O)[C@H](CC(N)=O)NC(=O)[C@H](CCSC)NC2=O` [M23R] (H-GVIINVKCKISRQCLEPCKKAGRRFGKCMNGKCHCTPK-OH; disulfide 8-28, 14-33, 18-35) gave an IC50 [1] of 0.182 nM and an IC50 [2] of 0.148 nM.

`CC[C@H](C)[C@@H]1NC(=O)[C@H](CCCCN)NC(=O)[C@@H](NC(=O)[C@H](CCCCN)NC(=O)[C@@H](NC(=O)[C@H](CC(N)=O)NC(=O)[C@@H](NC(=O)[C@@H](NC(=O)[C@@H](NC(=O)CN)C(C)C)[C@@H](C)CC)[C@@H](C)CC)C(C)C)CSSC[C@@H]2NC(=O)[C@H](CCCCN)NC(=O)CNC(=O)[C@H](Cc3ccccc3)NC(=O)[C@H](CCCNC(=N)N)NC(=O)[C@H](CCSC)NC(=O)CNC(=O)[C@H](C)NC(=O)[C@H](CCCCN)NC(=O)[C@H](CCCCN)NC(=O)[C@@H]3CSSC[C@@H](C(=O)N[C@H](C(=O)N4CCC[C@H]4C(=O)N[C@@H](CCCCN)C(=O)O)[C@@H](C)O)NC(=O)[C@H](CCCNC(=N)N)NC(=O)[C@H](CSSC[C@H](NC(=O)[C@H](CCC(N)=O)NC(=O)[C@H](CCCNC(=N)N)NC(=O)[C@H](CO)NC1=O)C(=O)N[C@@H](CC(C)C)C(=O)N[C@@H](CCC(=O)O)C(=O)N1CCC[C@H]1C(=O)N3)NC(=O)[C@H](CCCCN)NC(=O)CNC(=O)[C@H](CC(N)=O)NC(=O)[C@H](CCSC)NC2=O` [H34R] (H-GVIINVKCKISRQCLEPCKKAGMRFGKCMNGKCRCTPK-OH; disulfide 8-28, 14-33, 18-35) showed an IC50 [1] of 0.092 nM and an IC50 [2] of 0.108 nM.

With `CC[C@H](C)[C@@H]1NC(=O)[C@H](CCCCN)NC(=O)[C@@H](NC(=O)[C@H](CCCCN)NC(=O)[C@@H](NC(=O)[C@H](CC(N)=O)NC(=O)[C@@H](NC(=O)[C@H](Cc2cccc3ccccc23)NC(=O)[C@@H](NC(=O)CN)C(C)C)[C@@H](C)CC)C(C)C)CSSC[C@@H]2NC(=O)[C@H](CCCCN)NC(=O)CNC(=O)[C@H](Cc3ccccc3)NC(=O)[C@H](CCCNC(=N)N)NC(=O)[C@H](CCSC)NC(=O)CNC(=O)[C@H](C)NC(=O)[C@H](CCCCN)NC(=O)[C@H](CCCCN)NC(=O)[C@@H]3CSSC[C@@H](C(=O)N[C@H](C(=O)N4CCC[C@H]4C(=O)N[C@@H](CCCCN)C(=O)O)[C@@H](C)O)NC(=O)[C@H](Cc4c[nH]cn4)NC(=O)[C@H](CSSC[C@H](NC(=O)[C@H](CCC(N)=O)NC(=O)[C@H](CCCNC(=N)N)NC(=O)[C@H](CO)NC1=O)C(=O)N[C@@H](CC(C)C)C(=O)N[C@@H](CCC(=O)O)C(=O)N1CCC[C@H]1C(=O)N3)NC(=O)[C@H](CCCCN)NC(=O)CNC(=O)[C@H](CC(N)=O)NC(=O)[C@H](CCSC)NC2=O` [I3Nal] (H-GV[1Nal]INVKCKISRQCLEPCKKAGMRFGKCMNGKCHCTPK-OH; disulfide 8-28, 14-33, 18-35) the IC50 [1] was 0.907 nM and the IC50 [2] was 0.739 nM.

— patent US7820623B2 (priority 2006, dated 2010)
